Experimental findings from paper PMC4138991, “Building a Better Dynasore: The Dyngo Compounds Potently Inhibit Dynamin and Endocytosis” (Traffic (Copenhagen, Denmark), 2013) are described below.

For data set [1], the target named is T1, clathrin heavy chain binding to amphiphysin 1 (Homo sapiens, UniProt Q00610).
T1 construct: recombinant GST-tagged clathrin heavy chain TD (amino acids 1-364); made in house; host or cells: bacteria
T1 sequence (Q00610 1-364): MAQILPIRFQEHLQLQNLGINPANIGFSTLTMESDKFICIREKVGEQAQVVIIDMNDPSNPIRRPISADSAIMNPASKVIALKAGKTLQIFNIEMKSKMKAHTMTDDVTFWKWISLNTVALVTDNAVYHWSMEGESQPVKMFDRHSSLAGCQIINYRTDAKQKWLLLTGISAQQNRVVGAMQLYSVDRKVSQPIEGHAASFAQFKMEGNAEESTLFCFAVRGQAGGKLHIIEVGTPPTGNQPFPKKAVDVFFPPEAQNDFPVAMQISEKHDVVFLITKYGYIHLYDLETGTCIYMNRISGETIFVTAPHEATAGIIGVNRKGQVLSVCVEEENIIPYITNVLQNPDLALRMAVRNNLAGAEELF
Description: ELISA-based clathrin binding assay. The settings on record: up to 300 μM. On the procedure:
The assay for the interaction of amphiphysin with either clathrin or AP2 was based on our previous report (11). Bacterially expressed recombinant purified His6-tagged amphiphysin 1 PRD+CLAP domains (amino acids 250-578) in screening buffer (20 mM HEPES, pH 7.4, 50 mM NaCl, 1 mM DTT, 1 mM PMSF) was added to a 384 well ELISA plate (high-binding PS Microplate, Greiner Bio-One) and bound to the plastic at room temperature for 1 hr. Non-specific binding was reduced by overnight incubation with 50 µL blocking buffer (20 mM HEPES, pH 7.4, 50 mM NaCl, 1 mM PMSF, 2 % BSA, 2.5 % skim milk) at 4 °C. Following extensive washes (with 20 mM HEPES, pH 7.4, 50 mM NaCl, 0.05 % Tween 20), chemical compounds diluted in DMSO (10 µL) were added and incubated together with bacterially expressed recombinant GST-tagged clathrin heavy chain TD (amino acids 1-364) or GST-AP-2 α-appendage (amino acids 702–938) for 1 hr at room temperature in screening buffer. This incubation was in the presence of test compounds diluted in 1% DMSO or 1% DMSO alone as a control. After 3 washes, horseradish peroxidase-coupled anti-GST antibodies were added in screening buffer and the plate incubated for 15 min at room temperature. Following additional washes, 50 µL TMB (3,3′,5,5′-tetramethylbenzidine) (Pierce Biotechnology) chromogenic substrate of horseradish peroxidase was added and the plate was incubated for 20 min before the reaction was terminated by adding 50 µL 1 N sulfuric acid to produce a yellow colour. The amount of bound protein was determined by spectrophotometric measurement in a plate reader in triplicates. Relative binding was calculated as a percentage of the DMSO control.
In general terms: In an ELISA, binding on a coated surface is turned into a signal by an enzyme label.

For data set [2], the system named is mitochondria in HeLa cells. Description: Mitotracker labeling of mitochondria, live confocal imaging. Type of data set: cell-based. The settings on record: 30 μM 4a, 30 μM 6a or 100 μM dynasore, 30 min. From the text: Dynasore was originally reported to inhibit the GTPase activity of dynamin‐like protein 1 (Dlp‐1), which is involved in mitochondrial fission. This raises the possibility that dynasore and the Dyngo compounds may affect mitochondrial morphology and/or dynamics in cells. We investigated this by labeling mitochondria in live HeLa cells using Mitotracker Green FM and imaging the cells over time using confocal microscopy. These cells stably expressed an mCherry‐conjugated form of the nuclear histone protein H2B, providing contrast to the green mitochondria.
HeLa cells were used that had been stably transduced to express H2B-mCherry. Cells were cultured at 37 °C, 5% CO2 in RPMI medium with 10% FBS. Expression of the transgene was maintained by puromycin selection. The day before imaging, cells were seeded on 4-chambered, glass bottomed 35 mm round dish at a density of 1 x 10^5 cells per chamber. The next day, cells were washed 4x in PBS and then incubated either in RPMI + 10% FBS or RPMI alone for 4 h. Medium was then removed and replaced with Mitotracker green-FM (150 nM) diluted in Hank’s buffered salt solution. Cells were incubated in Mitotracker for 20 min and then returned to RPMI either with or without serum. Cells were then imaged in a Yokugawa CV1000 Cell Voyager live cell confocal system prior to the application of compounds. Compounds were then applied: control samples received 1% DMSO, while test samples received 4a, 6a or dynasore (final DMSO concentration of 1%). Cells were incubated for at 37 °C, 5% CO2 and then images acquired over 2 h at 6 min intervals. 6 images were taken of each test condition.

In a further data set the test system is rat brain synaptosomes. Description: Synaptic vesicle endocytosis: FM4-64 uptake in synaptosomes. Particulars: read-out: SVE IC50.
For data set [3], the system named is CT-555 uptake in NIH3T3 cells. Type of data set: cell-based. Particulars: NIH3T3, 20, 50 or 80 μM.

pIC50: −log10 of the molar value. Entries after “also recorded” stand apart in the source; their conditions may differ.

Consider `O=C(N/N=C/c1cccc(O)c1O)c1cc2ccccc2cc1O` [6a, (E)-N'-(2,3-Dihydroxybenzylidene)-3-hydroxy-2-naphthohydrazide], for which the “inhibition of clathrin heavy chain binding to amphiphysin 1” value in data set [1] is “None of the compounds inhibited this interaction”. In addition, in data set [2], the mitochondrial morphology result is given as “appeared to cause mitochondrial fragmentation”. In addition, the pIC50 (usually −log10 of the IC50, conventionally taken in molar units) in the data set with rat brain synaptosomes is 4.15. Also, in data set [3], the “effect on dynamin-independent endocytosis of cholera toxin” value is recorded as “no effect”.
On the same counts, the results for `O=C(N/N=C/c1ccc(O)c(O)c1)c1cc2ccccc2cc1O` [Dynasore, (E)-N'-(3,4-Dihydroxybenzylidene)-3-hydroxy-2-naphthohydrazide] are “None of the compounds inhibited this interaction”, “did not mediate any changes in mitochondrial morphology”, 3.74 and “much less effect”.
On the same counts, the results for `O=C(N/N=C/c1cc(O)c(O)cc1O)c1cc2ccccc2cc1O` [4a, (E)-3-Hydroxy-N'-(2,4,5-trihydroxybenzylidene) -2-naphthohydrazide] are “None of the compounds inhibited this interaction”, “did not mediate any changes in mitochondrial morphology”, 4.57 and “no effect; also recorded: much less effect; also recorded: does not block”.
